Experimental findings from US8030354B2, “Substituted biphenyl GPR40 modulators” (Amgen Inc., priority 2007, dated 2011) are described below.

The target in assay [1] is T1, GPR40 (Homo sapiens, UniProt O14842). Kind of assay: Cell-based aequorin assay (CHO cells stably expressing GPR40 and aequorin). The conditions noted are these: activation of human GPR40, CHO cells, 0.01% HSA. The arrangement: expressed in transfected cells; host or cells: CHO cells stably transfected with GPR40 and aequorin. Summed up: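 CHO cells stably co-expressing GPR40 and aequorin, loaded with coelenterazine (1 ug/mL, 2 h, room temperature) in H/HBSS with 20 mM Hepes and 0.01% fatty acid-free HSA. Serially diluted compounds added; luminescence recorded over 20 s. EC50 from dose-response of maximum relative light units.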
T1 sequence (O14842 whole entry): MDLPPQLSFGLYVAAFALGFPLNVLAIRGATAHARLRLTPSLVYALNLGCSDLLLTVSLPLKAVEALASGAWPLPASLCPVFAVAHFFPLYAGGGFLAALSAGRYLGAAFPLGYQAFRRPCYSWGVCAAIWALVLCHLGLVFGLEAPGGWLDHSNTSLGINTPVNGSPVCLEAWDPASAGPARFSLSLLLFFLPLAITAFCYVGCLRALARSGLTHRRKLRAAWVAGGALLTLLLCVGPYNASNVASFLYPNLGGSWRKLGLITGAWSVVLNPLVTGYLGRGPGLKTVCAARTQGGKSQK

In assay [2] the target is T1, GPR40. Kind of assay: Inositol phosphate accumulation assay (A9_GPR40 cells). The conditions noted are these: inositol phosphate assay, A9_GPR40 cells, 1 hour; read-out: IP3 EC50. The arrangement: expressed in transfected cells; host or cells: CHO cells stably transfected with GPR40 and aequorin. It counts as cell-based. In short, it runs like this:
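[^3H] inositol phosphate accumulation was measured by SPA after 1 h compound exposure at 37° C in HBSS/10 mM LiCl containing HSA, ending with a 20 mM formic acid quench. The GPR40-transfected A9 cells had first been labelled overnight (16 h) with 1 μCi/mL ^3H-inositol.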

In the case of `COc1ccc(F)c(-c2ccc(COc3cccc([C@@H](CC(=O)O)CC4CC4)c3)cc2C2=CC(C)(C)CC(C)(C)C2)c1` (single isomer, unassigned) [Example 69.31, (3R)-4-Cyclopropyl-3-(3-(((2′-fluoro-5′-(methyloxy)-2-(3,3,5,5-tetramethyl-1-cyclohexen-1-yl)-1,1′-biphenyl-4-yl)methyl)oxy)phenyl)butanoic acid or (3S)-4-cyclopropyl-3-(3-(((2′-fluoro-5′-(methyloxy)-2-(3,3,5,5-tetramethyl-1-cyclohexen-1-yl)-1,1′-biphenyl-4-yl)methyl)oxy)phenyl)butanoic acid], the EC50 in assay [1] is 0.1 to 1 µM; in assay [2], 0.01 to 0.1 µM.
The matching figures for `COc1ccc(F)c(-c2ccc(COc3cccc([C@@H](CC(=O)O)CC4CC4)c3)cc2C2CC(C)(C)CC(C)(C)C2)c1` (single isomer, unassigned) [Example 69.32, (3R)-4-Cyclopropyl-3-(3-(((2′-fluoro-5′-(methyloxy)-2-(3,3,5,5-tetramethylcyclohexyl)-1,1′-biphenyl-4-yl)methyl)oxy)phenyl)butanoic acid or (3S)-4-cyclopropyl-3-(3-(((2′-fluoro-5′-(methyloxy)-2-(3,3,5,5-tetramethylcyclohexyl)-1,1′-biphenyl-4-yl)methyl)oxy)phenyl)butanoic acid]: 0.1 to 1 µM and 0.01 to 0.1 µM.
Turning to `COc1ccc(F)c(-c2ccc(COc3cccc([C@@H](CC(=O)O)CC4CC4)c3)cc2C2CCCC2C)c1` (single isomer, unassigned) [Example 69.33, (3R)-4-Cyclopropyl-3-(3-(((2′-fluoro-2-(2-methylcyclopentyl)-5′-(methyloxy)-1,1′-biphenyl-4-yl)methyl)oxy)phenyl)butanoic acid or (3S)-4-cyclopropyl-3-(3-(((2′-fluoro-2-(2-methylcyclopentyl)-5′-(methyloxy)-1,1′-biphenyl-4-yl)methyl)oxy)phenyl)butanoic acid], the EC50 in assay [1] fell in the range of 0.1 to 1 µM; in assay [2], 0.01 to 0.1 µM.
The matching figures for `COc1ccc(F)c(-c2cc(F)c(COc3cccc(C(CC(=O)O)CC4CC4)c3)cc2C2CCCC2(C)C)c1` (single isomer, unassigned) [Example 69.34]: 0.1 to 1 µM and below 0.01 µM.
Regarding `COc1ccc(F)c(-c2ccc(COc3cccc(C(CC(=O)O)CC4CC4)c3)cc2C(OC)C(C)(C)C)c1` (single isomer, unassigned) [Example 69.35], the EC50 was 0.01 to 0.1 µM in assay [1] and below 0.01 µM in assay [2].
For `COc1ccc(F)c(-c2ccc(COc3cccc(C(CC(=O)O)CC4CC4)c3)cc2C2CCCCC2(C)C)c1` (single isomer, unassigned) [Example 69.36], the EC50 in assay [1] was 0.1 to 1 µM; in assay [2], below 0.01 µM.
As to `C=CC(C)(C)C(OC)c1cc(COc2cccc(C(CC(=O)O)CC3CC3)c2)ccc1-c1cc(OC)ccc1F` (single isomer, unassigned) [Example 69.38], the EC50 in assay [1] is 0.1 to 1 µM; in assay [2], below 0.01 µM.
For the compound `CCC(C)(C)C(OC)c1cc(COc2cccc(C(CC(=O)O)CC3CC3)c2)ccc1-c1cc(OC)ccc1F` (single isomer, unassigned) [Example 69.42], the EC50 in assay [1] was 0.1 to 1 µM; in assay [2], below 0.01 µM.
Take `COc1ccc(F)c(-c2ccc(COc3cccc([C@@H](CC(=O)O)CC4CC4)c3)cc2[C@H]2OCCC2(C)C)c1` (single isomer, unassigned) [Example 69.44]: the values for the EC50 in assay [1] and in assay [2] were 0.1 to 1 µM and 0.01 to 0.1 µM, respectively.
For `COc1cccc(-c2ccc(COc3cccc(C(CC(=O)O)C4CCC4)c3)cc2C(C)(C)C)c1` (single isomer, unassigned) [Example 70.1, (3S)-3-Cyclobutyl-3-(3-(((2-(1,1-dimethylethyl)-3′-(methyloxy)-1,1′-biphenyl-4-yl)methyl)oxy)phenyl)propanoic acid or (3R)-3-cyclobutyl-3-(3-(((2-(1,1-dimethylethyl)-3′-(methyloxy)-1,1′-biphenyl-4-yl)methyl)oxy)phenyl)propanoic acid], the EC50 in assay [1] was 0.1 to 1 µM; in assay [2] it was 0.01 to 0.1 µM.
On to `COc1ccc(F)c(-c2ccc(COc3cccc(C(CC(=O)O)C4CCC4)c3)cc2C2=CCCC2(C)C)c1` (single isomer, unassigned) [Example 70.2, (3S)-3-Cyclobutyl-3-(3-(((2-(5,5-dimethyl-1-cyclopenten-1-yl)-2′-fluoro-5′-(methyloxy)-1,1′-biphenyl-4-yl)methyl)oxy)phenyl)propanoic acid or (3R)-3-cyclobutyl-3-(3-(((2-(5,5-dimethyl-1-cyclopenten-1-yl)-2′-fluoro-5′-(methyloxy)-1,1′-biphenyl-4-yl)methyl)oxy)phenyl)propanoic acid], for which the results for the EC50 in assay [1] and in assay [2] were 0.1 to 1 µM and 0.01 to 0.1 µM, respectively.
As for `COc1ccc(F)c(-c2ccc(COc3cccc(C(CC(=O)O)C4CCC4)c3)cc2C(C)(C)C)c1` (single isomer, unassigned) [Example 70.3, (3S)-3-Cyclobutyl-3-(3-(((2-(1,1-dimethylethyl)-2′-fluoro-5′-(methyloxy)-1,1′-biphenyl-4-yl)methyl)oxy)phenyl)propanoic acid or (3R)-3-cyclobutyl-3-(3-(((2-(1,1-dimethylethyl)-2′-fluoro-5′-(methyloxy)-1,1′-biphenyl-4-yl)methyl)oxy)phenyl)propanoic acid], the EC50 in assay [1] lay within 0.1 to 1 µM; in assay [2] it was 0.01 to 0.1 µM.
With `CCCCOc1cc(COc2cccc(C(CC(=O)O)C3CCC3)c2)ccc1-c1cc(OC)ccc1F` (single isomer, unassigned) [Example 70.4, (3S)-3-(3-(((2-(Butyloxy)-2′-fluoro-5′-(methyloxy)-1,1′-biphenyl-4-yl)methyl)oxy)phenyl)-3-cyclobutylpropanoic acid or (3R)-3-(3-(((2-(butyloxy)-2′-fluoro-5′-(methyloxy)-1,1′-biphenyl-4-yl)methyl)oxy)phenyl)-3-cyclobutylpropanoic acid], the EC50 in assay [1] and in assay [2] was 0.1 to 1 µM each time.
Turning to `CCCCOc1cc(COc2cccc(C(CCCC)CC(=O)O)c2)ccc1-c1cc(OC)ccc1F` (single isomer, unassigned) [Example 71.2, (3R)-3-(3-(((2-(Butyloxy)-2′-fluoro-5′-(methyloxy)-1,1′-biphenyl-4-yl)methyl)oxy)phenyl)heptanoic acid or (3S)-3-(3-(((2-(butyloxy)-2′-fluoro-5′-(methyloxy)-1,1′-biphenyl-4-yl)methyl)oxy)phenyl)heptanoic acid], the EC50 in assay [1] and in assay [2] was 0.1 to 1 µM in each case.
For `CCCCC(CC(=O)O)c1cccc(OCc2ccc(-c3cc(OC)ccc3F)c(C3=CCCC3(C)C)c2)c1` (single isomer, unassigned) [Example 71.3, (3R)-3-(3-(((2-(5,5-Dimethyl-1-cyclopenten-1-yl)-2′-fluoro-5′-(methyloxy)-1,1′-biphenyl-4-yl)methyl)oxy)phenyl)heptanoic acid or (3S)-3-(3-(((2-(5,5-dimethyl-1-cyclopenten-1-yl)-2′-fluoro-5′-(methyloxy)-1,1′-biphenyl-4-yl)methyl)oxy)phenyl)heptanoic acid], the EC50 in assay [1] lay within 0.1 to 1 µM; in assay [2], 0.01 to 0.1 µM.
Consider `CCC(CC(=O)O)c1cc(OCc2ccc(-c3cc(OC)ccc3F)c(C3=CCCC3(C)C)c2)ccc1F` (single isomer, unassigned) [Example 76.1, (3R)-3-(5-(((2-(5,5-Dimethyl-1-cyclopenten-1-yl)-2′-fluoro-5′-(methyloxy)-1,1′-biphenyl-4-yl)methyl)oxy)-2-fluorophenyl)pentanoic acid or (3S)-3-(5-(((2-(5,5-dimethyl-1-cyclopenten-1-yl)-2′-fluoro-5′-(methyloxy)-1,1′-biphenyl-4-yl)methyl)oxy)-2-fluorophenyl)pentanoic acid], for which the EC50 in assay [1] is 0.1 to 1 µM; in assay [2] it was 0.01 to 0.1 µM.
Turning to `CCC(CC(=O)O)c1cc(OCc2ccc(-c3cc(OC)ccc3F)c(C3CCCC3(C)C)c2)ccc1F` (single isomer, unassigned) [Example 76.3], the EC50 in assay [1] lay within 0.1 to 1 µM; in assay [2] it was 0.01 to 0.1 µM.
Turning to `CCC(CC(=O)O)c1cccc(OCc2ccc(-c3cc(OC)ccc3F)c(C3=CCCC3(C)C)c2)c1F` (single isomer, unassigned) [Example 77.1, (3R)-3-(3-(((2-(5,5-Dimethyl-1-cyclopenten-1-yl)-2′-fluoro-5′-(methyloxy)-1,1′-biphenyl-4-yl)methyl)oxy)-2-fluorophenyl)pentanoic acid or (3S)-3-(3-(((2-(5,5-dimethyl-1-cyclopenten-1-yl)-2′-fluoro-5′-(methyloxy)-1,1′-biphenyl-4-yl)methyl)oxy)-2-fluorophenyl)pentanoic acid], the figures for the EC50 in assay [1] and in assay [2] were 0.1 to 1 µM and 0.01 to 0.1 µM, respectively.
Turning to `CCC(CC(=O)O)c1cccc(OCc2ccc(-c3cc(OC)ccc3F)c(C(C)(C)C)c2)c1F` (single isomer, unassigned) [Example 77.2, (3R)-3-(3-(((2-(1,1-Dimethylethyl)-2′-fluoro-5′-(methyloxy)-1,1′-biphenyl-4-yl)methyl)oxy)-2-fluorophenyl)pentanoic acid or (3S)-3-(3-(((2-(1,1-dimethylethyl)-2′-fluoro-5′-(methyloxy)-1,1′-biphenyl-4-yl)methyl)oxy)-2-fluorophenyl)pentanoic acid], the EC50 in assay [1] and in assay [2] was 0.1 to 1 µM in each case.
For `CCC(CC(=O)O)c1cccc(OCc2ccc(-c3cc(OC)ccc3F)c(C(OC)C(C)(C)C)c2)c1F` (single isomer, unassigned) [Example 77.4], the EC50 in assay [1] is 0.1 to 1 µM; in assay [2] it was below 0.01 µM.
